Data on one substance can be found in patent publication US5939403A, “Keratan sulfate oligosaccharide fraction and pharmaceutical containing the same” (Seikagaku Corporation, priority 1994, dated 1999).

The subject of experiment [1] is papain-induced arthritis. The experiment can be described thus: Papain-induced unilateral arthritis model, intramuscular administration (volume of synovial fluid). Particulars: 0.5 mg/kg intramuscular, unilateral model; 10 rabbits per group. It is filed as in vivo, Japanese white rabbits (female). The method, then:
The anti-inflammatory effect of the keratan sulfate oligosaccharide with rabbits of the papain-induced arthritis model was examined using the volume of synovial fluid as an indication.
Seven days after the injection, the blood was drawn from the auricular artery, and plasma containing heparin was separated. After drawing the blood, the rabbits were anatomized and the both knee joint were separated. The articular cavity was washed with 2 ml of saline three times to recover the synovial fluid. The calcium concentrations in the plasma and the recovered synovial fluid were determined, and the volume of synovial fluid was calculated from the following formula.
Volume of Synovial Fluid (ul/articulation)=Amount of Calcium in Recovered
Synovial Fluid (μg/articulation)/Concentration of Calcium in Plasma
Into the articular cavity of left joint of Japanese white rabbits (female) of 3 kg weight, 150 μl of the saline solution of papain (1%) was injected, and the right joint was not treated to prepare the unilateral arthritis model. One day after injecting papain, 150 μl of the PBS solution of the purified keratan sulfate tetrasaccharide (I) (2%, 1%, and 0.5% solution; 1.0 mg/kg, 0.5 mg/kg, and 0.25 mg/kg, respectively) which was prepared in Example 1 was injected into the hip muscle of the left side (hereinafter referred to as "the keratan sulfate tetrasaccharide (I) administered group"). As the control, 150 μl of PBS was injected to the arthritis model instead of the PBS solution of the keratan sulfate tetrasaccharide (I) and hereinafter these rabbits are referred to as "the control group". And the normal rabbits not subjected to the papain injection (hereinafter referred to as "the normal group") were also examined in the same manner hereinafter. Seven days after the injection, the volume of synovial fluid was calculated in the same manner as in (1-1).
The examination was performed in the same manner as in (1-3) except for using 150 μl of the PBS solution of the purified keratan sulfate tetrasaccharide (I), the keratan sulfate pentasaccharide (II), and the keratan sulfate disaccharide (III) (1% solution; 0.5 mg/kg) which were prepared in Example 1. In the figure, *, **, and *** represent that they have the significant difference with p<0.05, p<0.01, and p<0.001, respectively. And in each group, 10 rabbits were used for the examination.

The subject of experiment [2] is neutrophile of guinea pig. In words: Inhibition of active oxygen (O2^-) generation in FMLP-stimulated neutrophile. The experiment is classed as cell-based, female Hartley guinea pigs. As for the experimental part:
To female Hartley guinea pigs of five weeks old (purchased from Japan SLC), 20 ml of the 0.2% aqueous solution of glycogen (Type II; Oyster; Sigma) dissolved in saline which was previously sterilized with autoclave, was intraperitoneally administered. The guinea pigs were sacrificed by bleeding 16 hours after the administration, and 20 ml of the saline containing heparin at a concentration of 10 U/ml was intraperitoneally injected to recover the peritoneal exudate. Hereinafter all the operations were carried out under ice-water cooling condition except for incubation. The recovered exudate was centrifuged at 1,000 rpm for 10 minutes, the precipitate obtained was hemolyzed with purified water for 30 seconds, and returned into isotonicity with the Hanks' solution at double the concentration (not containing phenol red; Nissui Seiyaku), and further it was centrifuged at 1,000 rpm for 10 minutes. The precipitate obtained was suspended in the Hanks' solution and centrifuged and the operations were repeated once more to give the neutrophile.
The collected neutrophile of the guinea pigs was suspended in the Hanks' solution, the number of leukocyte in the suspension was determined by a cytometer (System K-2000; Toa Iyo Denshi Co.), and the suspension diluted with the Hanks' solution to 2×10^6 cells/ml was used in the determination as the cell suspension. After mixing 1 ml of the cell suspension and 10 μl of the purified keratan sulfate oligosaccharide (keratan sulfate tetrasaccharide (I), the keratan sulfate pentasaccharide (II), or the keratan sulfate disaccharide (III)) prepared in Example 1 described above, and the mixture was preincubated at 37° C. for an hour. […]
The supernatant obtained by the centrifugation was separated and the absorbance thereof was determined at 550 nm to estimate the quantity of reducing cytochrome c per 2×10^6 cells after the 10 minutes incubation. The quantity of reducing cytochrome c increases with the generation of active oxygen (O2^-). […]

Experiment [3] relates to allergic conjunctivitis. The experiment can be described thus: TDI-induced allergic conjunctivitis model, eye dropping. Particulars: 6.0 mg/ml eye drop, comparison of oligosaccharides. It is filed as in vivo, female Hartley guinea pigs. As for the experimental part: A variety of the keratan sulfate oligosaccharide was dropped in the eyes of the guinea pigs subjected to the induction of allergic conjunctivitis to examine the effect thereof.
Toluene diisocyanate (hereinafter referred to as TDI) was diluted with ethyl acetate to a concentration of 10%. To the bilateral vestibule of noses of 10 female Hartley guinea pigs of from about 900 to 1,000 g weight, the 10% TDI (10 μl/animal) obtained above was applied once a day for five days to prepare the TDI sensitization models. The PBS solution of the purified keratan sulfate tetrasaccharide (I) ([…]) which was prepared in Example 1 was dropped in the left eyes of the TDI sensitization models, while PBS was dropped in the right eyes as the control. The dose of dropping was one drop (48+4.6 μl (S.D.)) each from the eye dropper. After 10 minutes, 6.5 μl of 10% TDI was dropped to the both eyes to induce conjunctivitis. After five minutes standing, furthermore, the PBS solution of the keratan sulfate tetrasaccharide (I) ([…]) was dropped in the left eyes, and PBS was dropped in the right eyes. After 15 minutes, observation of the both eyes were carried out. The degree of conjunctivitis was evaluated regarding three items of hyperemia, edema and lacrimation into four grades such as point 0, +1, +2 and +3. In the figure, * represents that it has the significant difference with p<0.05 (wherein "p" means a level of significance by the .chi.^2 test).
The PBS solution of the purified keratan sulfate disaccharide (III), the keratan sulfate tetrasaccharide (I), and the keratan sulfate pentasaccharide (II) (6.0 mg/ml, respectively)which were prepared in Example 1 described above as the test substances were dropped, respectively, in the left eyes of the TDI sensitization models of 10 animals a group each which were prepared in the same manner as in (1) described above, and PBS was dropped in the right eyes as the control. The degree of conjunctivitis was evaluated in the same manner as in (1) described above. In the figure, * represents that it has the significant difference with p<0.05 (wherein "p" means a level of significance by the .chi.^2 test).
The PBS solution containing the purified keratan sulfate tetrasaccharide (I) which was prepared in Example 1 described above, at varieties of concentrations (6 mg/ml, 3 mg/ml, 1.5 mg/ml or 0.75 mg/ml) as the test substance, were dropped, respectively, in the left eyes of the TDI sensitization models of 10 animals a group each which were prepared in the same manner as in (1) described above, and PBS was dropped in the right eyes as the control. The degree of conjunctivitis was evaluated in the same manner as in (1) described above. In the figure, * represents that it has the significant differnce with p<0.05 (wherein "p" means a level of significance by the .chi.^2 test).

Consider “NeuAc~Galβ1-4GlcNAc(6S)β1-3Gal(6S)β1-4GlcNAc(6S) [keratan sulfate pentasaccharide (II)]”, for which, in experiment [1], the “quantity of synovial fluid (FIG. 5, result in words)” value is listed as “significantly less than that in the control group”. Besides, the “inhibitory function for generation of active oxygen (O2^-) (FIG. 10)” value in experiment [2] is listed as “slightly observed”. Besides, the “degree of conjunctivitis: hyperemia, edema and lacrimation (FIG. 12)” value in experiment [3] was “tended to show inhibition in all the items”.
